Test results from US11464795B2, “Saponin compound targeting PD-1 and application thereof” (EAST CHINA UNIVERSITY OF SCIENCE AND TECHNOLOGY, priority 2017, dated 2022).

How the values were obtained:
[1] = biological target: T1, recombinant human PD-1 protein (Homo sapiens, UniProt Q15116); assay: SPR determination of binding constants between saponin natural products and PD-1 protein; conditions: PD-1 coupled to CM7 chip, steady-state fitting, read-out: Binding affinity KD
T1 construct: amino acids 34-150 of human PD-1; made in house; host or cells: E. coli BL21 (DE3), pET-28a
T1 sequence (Q15116 34-150): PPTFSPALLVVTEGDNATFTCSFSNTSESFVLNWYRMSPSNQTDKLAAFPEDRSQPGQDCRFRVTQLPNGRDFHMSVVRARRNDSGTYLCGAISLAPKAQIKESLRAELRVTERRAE
Procedure: Surface plasmon resonance (SPR) was used to determine the binding affinity between natural products and PD-1 protein. Specific experimental steps are as follows: Firstly, the purified protein was exchanged into 50 mM Hepes, pH 8.0, 250 mM NaCl, 1 mM DTT buffer, and diluted to 50 μg/ml with sodium acetate pH 4.5. The protein was coupled to CM7 chip with a coupling kit for 600 s at a flow rate of 10 μl/min. The final coupling amount was about 13000 RU. After the coupling was completed, the CM7 chip was equilibrated to a stable state in a buffer solution (1.05×PBS, 0.05% P20). […] The final data was analyzed by BIAevaluation2.0 software, and KD values were obtained by steady-state fitting.

[2] = biological target: T2, human PD-1 binding to human PD-L1 (Homo sapiens, UniProt Q15116); assay: SPR competition of compounds with PD-L1 protein for binding PD-1; conditions: PD-L1 on CM5 chip, compound pre-incubated with 3 μM PD-1 protein
T2 construct: amino acids 34-150 of human PD-1; made in house; PD-L1: purchased from Beijing Yiqiao Shenzhou Biotechnology Co., Ltd., no catalogue number
T2 sequence (Q15116 34-150): as above
Procedure: Based on the results in the above examples, the present inventors investigated whether the compound can competite with PD-L1 for binding PD-1, and thus block PD-1 from binding PD-L1. PD-L1 protein was purchased from Beijing Yiqiao Shenzhou Biotechnology Co., Ltd. Specific experimental steps are as follows: 50 μg/ml PD-L1 protein was coupled to CM5 chip by amino coupling method. The coupling amount was about 3780 RU. Compounds of different concentrations were incubated with 3 μM PD-1 protein on ice for 30 min, and flowed across the surface of the chip along with the running buffer (1.05×PBS, 0.05% P20, 1% DMSO) at a flow rate of 30 μL/min, for binding time of 90 s and dissociation time of 120 s. PD-1 protein bound to PD-L1 protein on the chip decreases as the concentration of the compound increases, therefore, the response value decreases. The results of this experiment indicate that compounds can block PD-1 from binding PD-L1.

Jurkat T cells = assay: Detection of IL-2 secretion in T cells by ELISA (BxPC-3 / Jurkat T co-culture); assay type: cell-based; conditions: for Increase of the amount of IL-2 produced by Jurkat T cells: 50 μM compound, BxPC-3 tumor cells and Jurkat T cells co-cultured 3:1, 48 h, ELISA; for Restoration of the ability of depleted Jurkat T cells to secrete IL-2: FIG. 5 legend, result in words
Procedure: The inventors selected several compounds for the evaluation experiment of cell function. We co-cultured stimulated BxPC-3 tumor cells and activated Jurkat T cells in a 96-well plate at a ratio of 3:1. Jurkat T cells were cultured alone as a negative control. 50 μM of compound was added into the experimental group, and a D-hank's solution with the same DMSO content was used as a negative control. Each group was incubated in a carbon dioxide cell incubator for 48 h. The supernatant medium was collected and detected for the amount of IL-2 by an ELISA kit. Experiments were performed in triplicate. After tumor cells were co-cultured with T cells, the amount of IL-2 produced by the T cells was suppressed by about 55%. After 50 μM of compound 6 was added, the amount of IL-2 produced by Jurkat T cells can be increased by about 30%; after 50 μM of compound 8 was added, the amount of IL-2 produced by Jurkat T cells can be increased by about 1^7%; after 50 μM of compound 10 was added, the amount of IL-2 produced by Jurkat T cells can be increased by about 30%; after 50 μM of compound 11 was added, the amount of IL-2 produced by Jurkat T cells can be increased by about 12%; and after 50 μM of compound 13 was added, the amount of IL-2 produced by Jurkat T cells can be increased by about 23%. Such effects can be achieved in three repeated experiments. The results of this experiment indicate that the compounds can, to a certain extent, restore the function of T cells.

SMILES | Kd [1] [nM] | Blocking of human PD-1 binding to human PD-L1 [2] | Increase of the amount of IL-2 produced by Jurkat T cells (Jurkat T cells) | Restoration of the ability of depleted Jurkat T cells to secrete IL-2 (Jurkat T cells)
CC1(C)CC[C@]2(C(=O)O)CC[C@]3(C)C(=CCC4[C@@]5(C)CC[C@H](O)C(C)(C)C5CC[C@]43C)C2C1 (stereo partly drawn) [Compound 10] | 2710 | can block human PD-1 from binding to human PD-L1 | about 30% | can restore the ability of depleted Jurkat T cells to secrete IL-2
C[C@@H]1CC[C@@]2(C(=O)O)CC[C@]3(C)C(=CCC4[C@@]5(C)C[C@@H](O)[C@H](O)C(C)(C)C5CC[C@]43C)C2[C@H]1C (stereo partly drawn) [Compound 8] | 5020 | can block human PD-1 from binding to human PD-L1 |  | can restore the ability of depleted Jurkat T cells to secrete IL-2
C[C@@H]1OC(O[C@H]2C(O[C@H]3CC[C@@]4(C)C(CC[C@]5(C)C4CC=C4C6CC(C)(C)CC[C@]6(C(=O)O)CC[C@]45C)[C@]3(C)CO)OC[C@H](OC3O[C@H](CO)[C@@H](O)[C@H](O)[C@H]3O)[C@@H]2O)[C@H](O)[C@H](O)[C@H]1O (stereo partly drawn) [Compound 3] | 2100 |  |  | 
CC1(C)CC[C@]2(C(=O)O)CC[C@]3(C)C(=CC[C@@H]4[C@@]5(C)CC[C@H](O)[C@@](C)(CO)[C@@H]5CC[C@]43C)[C@@H]2C1 [Compound 5] | 5360 | can block human PD-1 from binding to human PD-L1 |  | 
CC1(C)CCC2(C(=O)O)CC[C@]3(C)C(=CCC4[C@@]5(C)C[C@@H](O)[C@H](O)C(C)(C)C5CC[C@]43C)C2C1 (stereo partly drawn) [Compound 12] |  | can block human PD-1 from binding to human PD-L1 |  | 
C[C@@H]1O[C@@H](O[C@H]2[C@H](O[C@H]3[C@H](O[C@H]4CC[C@@]5(C)[C@@H](CC[C@]6(C)[C@@H]5CC=C5[C@@H]7CC(C)(C)C[C@@H](O)[C@]7(C)CC[C@]56C)[C@@]4(C)CO)O[C@H](C(=O)O)[C@@H](O)[C@@H]3O)O[C@H](CO)[C@H](O)[C@@H]2O)[C@H](O)[C@H](O)[C@H]1O [Compound 7] | 2190 | can block human PD-1 from binding to human PD-L1 |  | 
C[C@@H]1CC[C@]2(C(=O)O)CC[C@]3(C)C(=CCC4[C@@]5(C)CC[C@H](O)C(C)(C)C5CC[C@]43C)C2[C@H]1C (stereo partly drawn) [Compound 9] | 4920 | can block human PD-1 from binding to human PD-L1 |  | 
CC1(C)CC[C@]2(C(=O)O[C@@H]3O[C@H](CO)[C@@H](O)[C@H](O)[C@H]3O)CC[C@]3(C)C(=CC[C@@H]4[C@@]5(C)CC[C@H](OC6O[C@H](C(=O)O)[C@@H](O)[C@H](O)[C@H]6OC6O[C@H](CO)[C@@H](O)[C@H](O)[C@H]6O)C(C)(C)[C@@H]5CC[C@]43C)[C@@H]2C1 (stereo partly drawn) [Compound 1] | 2230 | can block human PD-1 from binding to human PD-L1 |  | 

The next lines start with results.

Kd [1] [nM] | SMILES | Blocking of human PD-1 binding to human PD-L1 [2] | Increase of the amount of IL-2 produced by Jurkat T cells (Jurkat T cells) | Restoration of the ability of depleted Jurkat T cells to secrete IL-2 (Jurkat T cells)
1400 | C[C@H]1[C@H](C)CC[C@]2(C(=O)O)CC[C@]3(C)C(=CC[C@@H]4[C@@]5(C)C[C@@H](O)[C@H](O)C(C)(C)[C@@H]5CC[C@]43C)[C@H]12 [Compound 11] | can block human PD-1 from binding to human PD-L1 | about 12% | can restore the ability of depleted Jurkat T cells to secrete IL-2
1770 | C[C@H]1[C@H](C)CC[C@]2(C(=O)O)CC[C@]3(C)C(=CC[C@@H]4[C@@]5(C)C[C@@H](O)[C@@H](O)C(C)(C)[C@@H]5CC[C@]43C)[C@H]12 [Compound 13] | can block human PD-1 from binding to human PD-L1 | about 23% | can restore the ability of depleted Jurkat T cells to secrete IL-2
560 | CC1(C)CC[C@]2(C(=O)O[C@@H]3O[C@H](CO)[C@@H](O)[C@H](O)[C@H]3O)CC[C@]3(C)C(=CCC4[C@@]5(C)CCC(OC6O[C@H](C(=O)O)[C@@H](O)[C@H](O)[C@H]6O)C(C)(C)C5CC[C@]43C)[C@H]2C1 (stereo partly drawn) [Compound 4] | can block human PD-1 from binding to human PD-L1 |  | 
40 | CC1(C)CC[C@]2(C(=O)O)CC[C@]3(C)C(=CC[C@@H]4[C@@]5(C)CC[C@H](O[C@@H]6O[C@H](C(=O)O)[C@@H](O)[C@H](O[C@@H]7OC[C@@H](O)[C@H](O)[C@H]7O)[C@H]6O)C(C)(C)[C@@H]5CC[C@]43C)[C@@H]2C1 [Compound 6] | can block human PD-1 from binding to human PD-L1 | about 30% | can restore the ability of depleted Jurkat T cells to secrete IL-2
440 | C[C@@H]1CC[C@]2(C(=O)O)CC[C@]3(C)C(=CC[C@@H]4[C@@]5(C)CC[C@H](O[C@@H]6OC[C@H](O)[C@H](O)[C@H]6O)C(C)(C)[C@@H]5CC[C@]43C)[C@@H]2[C@]1(C)O [Compound 2] | can block human PD-1 from binding to human PD-L1 |  | 
